Results reported in US6949544B2, “Inhibitors of c-Jun N-terminal kinases (JNK) and other protein kinases” (Vertex Pharmaceuticals Incorporated, priority 2001, dated 2005).

How the values were obtained:
Format in all cases: biochemical
[1] = biological target: T1, activated JNK3 (Homo sapiens, UniProt P53779); experiment: JNK inhibition assay (spectrophotometric coupled-enzyme assay); conditions: 10 nM activated JNK3, 10 μM ATP; read-out: Activity in the JNK3 Inhibition Assay (Ki rating A-C)
T1 construct: One such construct encodes amino acid residues Ser40-Glu402 of JNK3α1 and is preceded by Met and Gly residues; Met-Gly (initiator methionine and added glycine) (N); made in house; host or cells: E. coli BL21 (DE3)
T1 sequence (P53779 40-402): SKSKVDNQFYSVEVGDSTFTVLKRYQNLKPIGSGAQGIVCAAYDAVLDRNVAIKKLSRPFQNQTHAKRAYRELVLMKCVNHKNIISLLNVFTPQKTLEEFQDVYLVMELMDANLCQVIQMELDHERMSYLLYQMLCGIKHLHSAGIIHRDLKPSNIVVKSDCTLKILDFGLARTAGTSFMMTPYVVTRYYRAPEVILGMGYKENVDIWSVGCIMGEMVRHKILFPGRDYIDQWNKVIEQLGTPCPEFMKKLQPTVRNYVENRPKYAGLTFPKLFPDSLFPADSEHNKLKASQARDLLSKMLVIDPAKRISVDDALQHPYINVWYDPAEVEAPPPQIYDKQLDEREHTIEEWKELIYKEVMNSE
In short: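 Activated (doubly phosphorylated, MKK7(DD)-activated) human JNK3, 10 nM, preincubated 10 min at 30 °C with inhibitor in 0.1 M HEPES pH 7.5, 10 mM MgCl2, 200 μM EGF receptor peptide, PK/LDH-coupled. Started with 10 μM ATP; A340 decrease followed at 30 °C. Ki from competitive inhibition model fit.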

[2] = biological target: T2, full length recombinant human Src kinase (Homo sapiens, UniProt P12931); experiment: Src inhibition assay (33P incorporation into poly Glu-Tyr); conditions: for inhibition at 2 µM: at a 2 μM inhibitor concentration, read-out: Activity in the SRC Inhibition Assay (percent inhibition rating D-F); for Ki: 10 μM ATP, read-out: Activity in the SRC Inhibition Assay (Ki rating A-C)
T2 construct: full length recombinant human Src kinase; purchased Upstate Biotechnology 14-117; host or cells: baculo viral cells (baculovirus expression)
T2 sequence (P12931 whole entry): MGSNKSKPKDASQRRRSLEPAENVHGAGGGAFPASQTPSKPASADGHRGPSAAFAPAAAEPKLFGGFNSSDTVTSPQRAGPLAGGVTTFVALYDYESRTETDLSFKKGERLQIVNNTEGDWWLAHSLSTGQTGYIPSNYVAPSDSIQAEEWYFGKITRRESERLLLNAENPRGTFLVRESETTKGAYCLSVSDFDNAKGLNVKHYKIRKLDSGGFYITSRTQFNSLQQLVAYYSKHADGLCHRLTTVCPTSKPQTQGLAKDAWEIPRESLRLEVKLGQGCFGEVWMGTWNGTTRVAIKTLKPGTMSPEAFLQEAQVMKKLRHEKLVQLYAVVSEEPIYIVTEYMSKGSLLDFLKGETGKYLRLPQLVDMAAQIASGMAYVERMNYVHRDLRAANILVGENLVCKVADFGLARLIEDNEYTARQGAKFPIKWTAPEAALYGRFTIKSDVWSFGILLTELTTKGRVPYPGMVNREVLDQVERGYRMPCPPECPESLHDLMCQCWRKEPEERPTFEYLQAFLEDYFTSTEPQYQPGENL
Protocol: The compounds were assayed as inhibitors of full length recombinant human Src kinase (from Upstate Biotechnology, cat. no. 14-117) expressed and purified from baculo viral cells. Src kinase activity was monitored by following the incorporation of ^33P from ATP into the tyrosine of a random poly Glu-Tyr polymer substrate of composition, Glu:Tyr=4:1 (Sigma, cat. no. P-0275). The following were the final concentrations of the assay components: 0.05 M HEPES, pH 7.6, 10 mM MgCl2, 2 mM DTT, 0.25 mg/ml BSA, 10 μM ATP (1-2 μCi ^33P-ATP per reaction), 5 mg/ml poly Glu-Tyr, and 1-2 units of recombinant human Src kinase. In a typical assay, all the reaction components with the exception of ATP were pre-mixed and aliquoted into assay plate wells. […] The assay plate was incubated at 30° C. for 10 min before initiating the reaction with ^33P-ATP. After 20 min of reaction, the reactions were quenched with 150 μl of 10% trichloroacetic acid (TCA) containing 20 mM Na3PO4. The quenched samples were then transferred to a 96-well filter plate (Whatman, UNI-Filter GF/F Glass Fiber Filter, cat no. 7700-3310) installed on a filter plate vacuum manifold. Filter plates were washed four times with 10% TCA containing 20 mM Na3PO4 and then 4 times with methanol. 200 μl of scintillation fluid was then added to each well. The plates were sealed and the amount of radioactivity associated with the filters was quantified on a TopCount scintillation counter.

[3] = biological target: T3, Lck kinase purified from bovine thymus (Bos taurus, UniProt Q3ZCM0); experiment: Lck inhibition assay (33P incorporation into poly Glu-Tyr); conditions: for Ki: 10 μM ATP, read-out: Activity in the Lck Inhibition Assay (Ki rating A-C)
T3 construct: Lck kinase purified from bovine thymus; purchased Upstate Biotechnology 14-106; host or cells: bovine thymus (tissue-purified)
T3 sequence (Q3ZCM0 1-509): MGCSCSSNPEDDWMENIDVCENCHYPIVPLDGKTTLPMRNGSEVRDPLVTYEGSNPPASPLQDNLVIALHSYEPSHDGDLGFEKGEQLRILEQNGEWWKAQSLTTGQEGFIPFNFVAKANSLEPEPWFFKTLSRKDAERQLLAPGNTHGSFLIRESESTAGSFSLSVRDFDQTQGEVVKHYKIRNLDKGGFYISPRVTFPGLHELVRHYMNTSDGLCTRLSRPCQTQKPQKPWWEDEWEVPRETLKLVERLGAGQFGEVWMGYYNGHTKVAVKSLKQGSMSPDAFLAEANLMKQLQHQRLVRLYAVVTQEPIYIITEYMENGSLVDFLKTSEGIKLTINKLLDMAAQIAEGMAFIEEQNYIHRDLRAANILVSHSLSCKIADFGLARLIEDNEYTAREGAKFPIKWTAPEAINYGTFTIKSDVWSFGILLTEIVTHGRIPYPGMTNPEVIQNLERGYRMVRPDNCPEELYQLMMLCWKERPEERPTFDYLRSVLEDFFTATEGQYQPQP
Protocol: The compounds were assayed as inhibitors of Lck kinase purified from bovine thymus (from Upstate Biotechnology, cat. no. 14-106). Lck kinase activity was monitored by following the incorporation of ^33P from ATP into the tyrosine of a random poly Glu-Tyr polymer substrate of composition, Glu:Tyr=4:1 (Sigma, cat. no. P-0275). The following were the final concentrations of the assay components: 0.05 M HEPES, pH 7.6, 10 mM MgCl2, 2 mM DTT, 0.25 mg/ml BSA, 10 μM ATP (1-2 μCi ^33P-ATP per reaction), 5 mg/ml poly Glu-Tyr, and 1-2 units of lck kinase. In a typical assay, all the reaction components with the exception of ATP were pre-mixed and aliquoted into assay plate wells. […] The assay plate was incubated at 30° C. for 10 min before initiating the reaction with ^33P-ATP. After 20 min of reaction, the reactions were quenched with 150 μl of 10% trichloroacetic acid (TCA) containing 20 mM Na3PO4. The quenched samples were then transferred to a 96-well filter plate (Whatman, UNI-Filter GF/F Glass Fiber Filter, cat no. 7700-3310) installed on a filter plate vacuum manifold. Filter plates were washed four times with 10% TCA containing 20 mM Na3PO4 and then 4 times with methanol. 200 μl of scintillation fluid was then added to each well. The plates were sealed and the amount of radioactivity associated with the filters was quantified on a TopCount scintillation counter.

[4] = biological target: CDK-2/Cyclin A (Homo sapiens, UniProt P24941); experiment: CDK2 inhibition assay (standard coupled enzyme assay); conditions: 25 nM CDK-2/Cyclin A; read-out: CDK2 Inhibitory Activity (Ki rating A-C)
In short: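 CDK-2/Cyclin A (25 nM final) started the reaction after 10-min, 30° C preincubation of compound (30 μM final) with peptide (100 μM), ATP and coupling enzymes in HEPES pH 7.5.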

[5] = biological target: Glycogen Synthase Kinase 3 (GSK-3) (Homo sapiens, UniProt P49841); experiment: GSK-3 inhibition assay (standard coupled enzyme assay); conditions: 60 nM GSK-3, 10 μM ATP; read-out: GSK-3 Inhibitory Activity (Ki rating A-C)
Chain of Glycogen Synthase Kinase 3 (GSK-3) (P49841 whole entry): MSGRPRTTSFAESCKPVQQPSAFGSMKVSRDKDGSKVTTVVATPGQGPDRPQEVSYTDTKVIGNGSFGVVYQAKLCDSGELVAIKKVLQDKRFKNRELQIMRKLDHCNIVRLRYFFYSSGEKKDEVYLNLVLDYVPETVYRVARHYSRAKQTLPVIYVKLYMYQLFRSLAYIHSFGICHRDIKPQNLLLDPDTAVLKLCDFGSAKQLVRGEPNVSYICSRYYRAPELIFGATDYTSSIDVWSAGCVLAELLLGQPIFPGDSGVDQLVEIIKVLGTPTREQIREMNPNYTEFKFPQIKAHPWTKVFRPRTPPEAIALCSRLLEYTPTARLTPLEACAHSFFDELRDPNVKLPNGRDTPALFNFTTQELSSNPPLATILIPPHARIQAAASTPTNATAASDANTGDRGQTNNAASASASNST
Protocol: Compounds were screened in the following manner for their ability to inhibit Glycogen Synthase Kinase 3 (GSK-3) using a standard coupled enzyme assay (Fox et al (1998) Protein Sci 7, 2249). To an assay stock buffer solution containing 0.1M HEPES 7.5, 10 mM MgCl2, 25 mM NaCl, 2.5 mM phosphoenolpyruvate, 300 μM NADH, 1 mM DTT, 30 μg/mL pyruvate kinase, 10 μg/mL lactate dehydrogenase, 300 μM peptide (HSSPHQp-SEDEEE, American Peptide, Sunnyvale, Calif.), and 60 nM GSK-3, was added a 30 μM solution of the compound in DMSO and the resulting mixture incubated at 30° C. for 5 min. The reaction was initiated by the addition of 10 μM ATP. The rates of reaction were obtained by monitoring absorbance at 340 nm over a 5 minute read time at 30° C. using a Molecular Devices plate reader (Sunnyvale, Calif.). The IC50 was determined from the rate data as a function of inhibitor concentration.

Row | Ki [1] [nM] | inhibition at 2 µM [2] [%] | Ki [3] [nM] | Ki [4] [nM] | Ki [5] [nM] | Ki [2] [nM] | SMILES | Activity in the Lck Inhibition Assay (percent inhibition rating D-F) ([3]; at a 5 μM inhibitor concentration)
1 | < 100 | < 33 | > 1000 | > 5000 | – | – | COc1cc(-c2ccnc(Nc3ccc(F)cc3)n2)cc(OC)c1OC [Compound I-3] | –
2 | < 100 | 24 to 66 | – | > 5000 | – | – | COc1cc(-c2ccnc(Nc3cccc(F)c3F)n2)cc(OC)c1OC [Compound I-13] | –
3 | 100 to 1000 | 24 to 66 | – | – | 100 to 1000 | – | COc1c(Br)cc(-c2ccnc(Nc3cccc(F)c3)n2)cc1Br [Compound I-48] | –
4 | < 100 | 67 to 100 | – | – | – | – | CCOc1c(OC)cc(-c2ccnc(Nc3cccc(OC)c3)n2)cc1OC [Compound I-50] | –
5 | < 100 | 24 to 66 | – | – | – | – | COc1cc(-c2ccnc(Nc3cccc(O)c3)n2)cc(OC)c1OC [Compound I-58] | –
6 | < 100 | 67 to 100 | – | > 5000 | – | – | COc1cc(-c2ccnc(Nc3cccc(F)c3)n2)cc(OC)c1OC [Compound I-60] | –
7 | < 100 | < 33 | – | > 5000 | – | – | COc1cc(-c2ccnc(Nc3ccc(Cl)nc3)n2)cc(OC)c1OC [Compound I-61] | –
8 | < 100 | 24 to 66 | – | – | – | – | COc1cc(-c2ccnc(Nc3ccc4c(c3)OCO4)n2)cc(OC)c1OC [Compound I-63] | –
9 | < 100 | – | – | < 2000 | < 100 | – | COc1cc(-c2ccnc(Nc3ccc(S(N)(=O)=O)cc3)n2)cc(OC)c1OC [Compound I-66] | E (percent inhibition of between 24% and 66%)
10 | < 100 | 24 to 66 | – | – | – | – | COc1cc(-c2ccnc(Nc3ccc(Cl)nc3)n2)cc(OC)c1O [Compound I-73] | –
11 | < 100 | 24 to 66 | – | – | – | – | COc1cc(-c2ccnc(Nc3ccccc3)n2)cc2c1OCCO2 [Compound I-74] | –
12 | < 100 | 24 to 66 | – | – | – | – | COc1cc(-c2ccnc(Nc3ccc(Cl)cc3)n2)cc2c1OCCO2 [Compound I-76] | –
13 | < 100 | 24 to 66 | – | – | – | – | COc1ccc(Nc2nccc(-c3cc(OC)c4c(c3)OCCO4)n2)cc1 [Compound I-78] | –
14 | < 100 | 24 to 66 | – | – | – | – | COc1cc(-c2ccnc(Nc3cccc(F)c3)n2)cc2c1OCCO2 [Compound I-79] | –
15 | < 100 | 24 to 66 | – | – | – | – | COc1cc(-c2ccnc(Nc3ccc(F)cc3)n2)cc2c1OCCO2 [Compound I-80] | –
16 | < 100 | 67 to 100 | – | – | – | – | COc1cc(-c2ccnc(Nc3cccc(C)c3)n2)cc2c1OCCO2 [Compound I-81] | –
17 | < 100 | < 33 | – | – | – | – | COc1cc(-c2ccnc(Nc3ccc(C)cc3)n2)cc2c1OCCO2 [Compound I-82] | –
18 | – | – | < 100 | – | – | < 100 | COc1ccc(-c2ccnc(Nc3cccc(Oc4ccccc4)c3)n2)c(OC)c1OC [II-1] | –
19 | – | – | 100 to 1000 | – | – | < 100 | COc1ccc(-c2ccnc(Nc3cccc(S(=O)(=O)c4ccccc4)c3)n2)c(OC)c1OC [II-24] | –

Row | Ki [1] [nM] | inhibition at 2 µM [2] [%] | Ki [3] [nM] | Ki [4] [nM] | Ki [5] [nM] | Ki [2] [nM] | SMILES | Activity in the Lck Inhibition Assay (percent inhibition rating D-F) ([3]; at a 5 μM inhibitor concentration)
20 | – | – | 100 to 1000 | > 5000 | > 1000 | – | COc1ccc(-c2ccnc(Nc3cc(-c4cccc(F)c4)ccc3C)n2)c(OC)c1OC [II-45] | –
21 | – | – | 100 to 1000 | > 5000 | > 1000 | – | COc1ccc(-c2ccnc(Nc3cc(-c4cccc(N)c4)ccc3C)n2)c(OC)c1OC [II-46] | –
22 | – | – | 100 to 1000 | > 5000 | 100 to 1000 | – | COc1ccc(-c2ccnc(Nc3cc(-c4cccc(O)c4)ccc3C)n2)c(OC)c1OC [II-47] | –
23 | – | – | 100 to 1000 | > 5000 | 100 to 1000 | – | COc1ccc(-c2ccccc2)cc1Nc1nccc(-c2ccc(OC)c(OC)c2OC)n1 [II-48] | –
24 | – | – | > 1000 | > 5000 | – | 100 to 1000 | COc1ccc(-c2ccnc(Nc3cccc(-c4ccccc4C)c3)n2)c(OC)c1OC [II-62] | –
25 | – | – | 100 to 1000 | – | – | < 100 | COc1ccc(-c2ccnc(Nc3cccc(-c4ccc(C)cc4)c3)n2)c(OC)c1OC [II-63] | –
26 | – | – | – | – | > 1000 | < 100 | COc1ccc(-c2cccc(F)c2)cc1Nc1nccc(-c2ccc(OC)c(OC)c2OC)n1 [II-64] | –
27 | – | – | – | – | > 1000 | 100 to 1000 | COc1ccc(-c2cccc(Cl)c2)cc1Nc1nccc(-c2ccc(OC)c(OC)c2OC)n1 [II-65] | –
28 | – | – | – | – | > 1000 | > 1000 | COc1ccc(-c2ccnc(Nc3cc(-c4cccc(Cl)c4)ccc3F)n2)c(OC)c1OC [II-66] | –
29 | – | – | – | – | < 100 | < 100 | COc1ccc(Nc2nccc(-c3ccc(OC)c(OC)c3OC)n2)cc1-c1cccc(Cl)c1 [II-67] | –
30 | – | – | – | – | < 100 | 100 to 1000 | COc1ccc(Nc2nccc(-c3ccc(OC)c(OC)c3OC)n2)cc1-c1ccc(Cl)cc1 [II-68] | –
31 | – | – | – | – | < 100 | < 100 | COc1ccc(Nc2nccc(-c3ccc(OC)c(OC)c3OC)n2)cc1-c1cccc(F)c1 [II-69] | –
32 | – | – | 100 to 1000 | > 5000 | 100 to 1000 | – | COc1ccc(Nc2nccc(-c3ccc(OC)c(OC)c3OC)n2)cc1O [II-70] | –
33 | – | – | 100 to 1000 | > 5000 | > 1000 | – | COc1ccc(Nc2nccc(-c3ccc(OC)c(OC)c3OC)n2)cc1[N+](=O)[O-] [II-71] | –
34 | – | – | > 1000 | > 5000 | > 1000 | – | COc1ccc(Nc2nccc(-c3ccc(OC)c(OC)c3OC)n2)cc1N [II-72] | –
35 | – | – | < 100 | > 5000 | < 100 | – | COc1ccc(Oc2cc(Nc3nccc(-c4ccc(OC)c(OC)c4OC)n3)ccc2OC)cc1 [II-73] | –
36 | – | – | < 100 | > 5000 | < 100 | – | COc1ccc(Nc2nccc(-c3ccc(OC)c(OC)c3OC)n2)cc1Oc1cccc(Cl)c1 [II-74] | –
37 | – | – | < 100 | > 5000 | < 100 | – | COc1cccc(Oc2cc(Nc3nccc(-c4ccc(OC)c(OC)c4OC)n3)ccc2OC)c1 [II-75] | –
38 | – | – | < 100 | > 5000 | 100 to 1000 | – | CCOc1ccc(Oc2cc(Nc3nccc(-c4ccc(OC)c(OC)c4OC)n3)ccc2OC)cc1 [II-76] | –
